Assay results published in PubChem BioAssay (NCI).
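Cultured in 96-well plates, cells were exposed to test compound for 48 hours across five concentrations. GI50 is the concentration that inhibits growth by half. TGI is the concentration that stops growth completely.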

Tests used:
Test in all cases: NCI anticancer screen, dose series, 48 h
[1] = system: MOLT-4 leukemia
[2] = system: SF-268 CNS
[3] = system: IGROV1 ovarian
[4] = system: MDA-MB-231 breast
[5] = system: LOX IMVI melanoma
[6] = system: A549 NSCLC
[7] = system: MDA-MB-435
[8] = system: RPMI-8226 leukemia
[9] = system: SNB-19 CNS
[10] = system: SK-MEL-28 melanoma
[11] = system: CAKI-1 renal
[12] = system: DU-145 prostate
[13] = system: HCC-2998 colon
[14] = system: KM12 colon
[15] = system: PC-3 prostate
[16] = system: OVCAR-3 ovarian
[17] = system: NCI-H460 lung
[18] = system: SK-MEL-2 melanoma
[19] = system: UO-31 renal
[20] = system: BT-549 breast
[21] = system: SF-539 CNS
[22] = system: SK-OV-3 ovarian
[23] = system: SN12C renal
[24] = system: OVCAR-4 ovarian
[25] = system: NCI/ADR-RES ovarian
[26] = system: HL-60(TB) leukemia
[27] = system: K-562 leukemia
[28] = system: SNB-75 CNS
[29] = system: A498 renal
[30] = system: MALME-3M melanoma
[31] = system: HOP-62 NSCLC
[32] = system: OVCAR-5 ovarian
[33] = system: TK-10 renal
[34] = system: NCI-H226 lung
[35] = system: OVCAR-8 ovarian
[36] = system: UACC-62 melanoma
[37] = system: SF-295 CNS
[38] = system: MDA-MB-468 breast
[39] = system: MCF7 breast
[40] = system: EKVX NSCLC
[41] = system: SR leukemia
[42] = system: HOP-92 NSCLC
[43] = system: 786-0 renal
[44] = system: NCI-H522 lung
[45] = system: ACHN renal
[46] = system: SW-620 colon
[47] = system: HCT-116 colon
[48] = system: SK-MEL-5 melanoma
[49] = system: NCI-H23 lung
[50] = system: HCT-15 colon
[51] = system: T-47D breast
[52] = system: M14 melanoma
[53] = system: COLO 205 colon
[54] = system: HT29 colon
[55] = system: U251 CNS
[56] = system: CCRF-CEM leukemia
[57] = system: UACC-257 melanoma

Q: `COc1cc(/C=C/C(=O)c2cc(OC)c(OC)c(OC)c2)ccc1Oc1nc(Nc2ccc(F)cc2)nc(N(C)C)n1` was tested. Which GI50 [1] did it give?
A: The GI50 was 472 nM.

Q: And the TGI [1]?
A: The TGI was > 100000 nM.

Q: What about the GI50 [2] of the same molecule?
A: Its GI50 is 3430 nM.

Q: And the TGI [2]?
A: Its TGI is > 100000 nM.

Q: And the GI50 [3]?
A: The GI50 was 1930 nM.

Q: And the TGI [3]?
A: Its TGI is 4490 nM.

Q: What about the GI50 [4] of the same molecule?
A: Its GI50 is 1480 nM.

Q: What about the TGI [4] of the same molecule?
A: The TGI was 3580 nM.

Q: And the GI50 [5]?
A: Its GI50 is 478 nM.

Q: What about the TGI [5] of the same molecule?
A: The TGI was 1690 nM.

Q: What about the GI50 [6] of the same molecule?
A: Its GI50 is 4490 nM.

Q: What about the TGI [6] of the same molecule?
A: Its TGI is 19200 nM.

Q: And the GI50 [7]?
A: Its GI50 is 1630 nM.

Q: And the TGI [7]?
A: The TGI was 3540 nM.

Q: And the GI50 [8]?
A: The GI50 was 751 nM.

Q: And the TGI [8]?
A: Its TGI is 5210 nM.

Q: What about the GI50 [9] of the same molecule?
A: The GI50 was 1860 nM.

Q: What about the TGI [9] of the same molecule?
A: Its TGI is 4580 nM.

Q: What about the GI50 [10] of the same molecule?
A: The GI50 was 1800 nM.

Q: What about the TGI [10] of the same molecule?
A: The TGI was 4070 nM.

Q: And the GI50 [11]?
A: Its GI50 is 1980 nM.

Q: What about the TGI [11] of the same molecule?
A: Its TGI is 6670 nM.

Q: What about the GI50 [12] of the same molecule?
A: Its GI50 is 3990 nM.

Q: What about the TGI [12] of the same molecule?
A: Its TGI is 18700 nM.

Q: What about the GI50 [13] of the same molecule?
A: The GI50 was 2030 nM.

Q: And the TGI [13]?
A: The TGI was 4160 nM.

Q: And the GI50 [14]?
A: The GI50 was 3630 nM.

Q: And the TGI [14]?
A: Its TGI is 88600 nM.

Q: What about the GI50 [15] of the same molecule?
A: The GI50 was 2770 nM.

Q: And the TGI [15]?
A: Its TGI is 30900 nM.

Q: And the GI50 [16]?
A: Its GI50 is 2570 nM.

Q: What about the TGI [16] of the same molecule?
A: Its TGI is > 100000 nM.

Q: What about the GI50 [17] of the same molecule?
A: Its GI50 is 1450 nM.

Q: What about the TGI [17] of the same molecule?
A: The TGI was 3300 nM.

Q: What about the GI50 [18] of the same molecule?
A: Its GI50 is 1690 nM.

Q: And the TGI [18]?
A: The TGI was 3790 nM.

Q: And the GI50 [19]?
A: Its GI50 is 1120 nM.

Q: And the TGI [19]?
A: Its TGI is 2360 nM.

Q: What about the GI50 [20] of the same molecule?
A: Its GI50 is 1560 nM.

Q: What about the TGI [20] of the same molecule?
A: The TGI was 3200 nM.

Q: And the GI50 [21]?
A: Its GI50 is 1640 nM.

Q: And the TGI [21]?
A: Its TGI is 3090 nM.

Q: What about the GI50 [22] of the same molecule?
A: The GI50 was 8420 nM.

Q: And the TGI [22]?
A: Its TGI is 29900 nM.

Q: What about the GI50 [23] of the same molecule?
A: The GI50 was 1230 nM.

Q: What about the TGI [23] of the same molecule?
A: The TGI was 2730 nM.

Q: What about the GI50 [24] of the same molecule?
A: The GI50 was 2070 nM.

Q: And the TGI [24]?
A: Its TGI is 10600 nM.

Q: What about the GI50 [25] of the same molecule?
A: Its GI50 is 1420 nM.

Q: And the TGI [25]?
A: Its TGI is 3390 nM.

Q: And the GI50 [26]?
A: The GI50 was 2210 nM.

Q: What about the TGI [26] of the same molecule?
A: The TGI was 8240 nM.

Q: And the GI50 [27]?
A: Its GI50 is 1400 nM.

Q: And the TGI [27]?
A: Its TGI is > 100000 nM.

Q: What about the GI50 [28] of the same molecule?
A: Its GI50 is 2540 nM.

Q: And the TGI [28]?
A: The TGI was 21100 nM.

Q: And the GI50 [29]?
A: Its GI50 is 3990 nM.

Q: What about the TGI [29] of the same molecule?
A: The TGI was 15200 nM.

Q: What about the GI50 [30] of the same molecule?
A: The GI50 was 1750 nM.

Q: What about the TGI [30] of the same molecule?
A: Its TGI is 4210 nM.

Q: What about the GI50 [31] of the same molecule?
A: The GI50 was 1830 nM.

Q: And the TGI [31]?
A: The TGI was 3880 nM.

Q: And the GI50 [32]?
A: Its GI50 is 1480 nM.

Q: What about the TGI [32] of the same molecule?
A: The TGI was 3890 nM.

Q: What about the GI50 [33] of the same molecule?
A: Its GI50 is 2530 nM.

Q: What about the TGI [33] of the same molecule?
A: The TGI was 7300 nM.

Q: And the GI50 [34]?
A: The GI50 was 1440 nM.

Q: And the TGI [34]?
A: The TGI was 3230 nM.

Q: What about the GI50 [35] of the same molecule?
A: The GI50 was 1550 nM.

Q: What about the TGI [35] of the same molecule?
A: Its TGI is 6570 nM.

Q: What about the GI50 [36] of the same molecule?
A: The GI50 was 1410 nM.

Q: What about the TGI [36] of the same molecule?
A: The TGI was 3000 nM.

Q: What about the GI50 [37] of the same molecule?
A: The GI50 was 1980 nM.

Q: What about the TGI [37] of the same molecule?
A: The TGI was 5490 nM.

Q: And the GI50 [38]?
A: The GI50 was 1350 nM.

Q: What about the TGI [38] of the same molecule?
A: Its TGI is 3510 nM.

Q: And the GI50 [39]?
A: Its GI50 is 1060 nM.

Q: What about the TGI [39] of the same molecule?
A: The TGI was 4070 nM.

Q: What about the GI50 [40] of the same molecule?
A: Its GI50 is 2150 nM.

Q: And the TGI [40]?
A: Its TGI is 9120 nM.

Q: What about the GI50 [41] of the same molecule?
A: Its GI50 is 700 nM.

Q: What about the TGI [41] of the same molecule?
A: Its TGI is > 100000 nM.

Q: What about the GI50 [42] of the same molecule?
A: Its GI50 is 1670 nM.

Q: What about the TGI [42] of the same molecule?
A: Its TGI is 6720 nM.

Q: What about the GI50 [43] of the same molecule?
A: Its GI50 is 1450 nM.

Q: What about the TGI [43] of the same molecule?
A: The TGI was 3230 nM.

Q: What about the GI50 [44] of the same molecule?
A: The GI50 was 1470 nM.

Q: And the TGI [44]?
A: Its TGI is 3240 nM.

Q: What about the GI50 [45] of the same molecule?
A: Its GI50 is 2300 nM.

Q: What about the TGI [45] of the same molecule?
A: Its TGI is 7480 nM.

Q: What about the GI50 [46] of the same molecule?
A: The GI50 was 1550 nM.

Q: And the TGI [46]?
A: The TGI was 3270 nM.

Q: What about the GI50 [47] of the same molecule?
A: Its GI50 is 1400 nM.

Q: What about the TGI [47] of the same molecule?
A: Its TGI is 3180 nM.

Q: What about the GI50 [48] of the same molecule?
A: The GI50 was 2160 nM.

Q: What about the TGI [48] of the same molecule?
A: Its TGI is 4830 nM.

Q: What about the GI50 [49] of the same molecule?
A: The GI50 was 1630 nM.

Q: And the TGI [49]?
A: Its TGI is 3630 nM.

Q: What about the GI50 [50] of the same molecule?
A: The GI50 was 1180 nM.

Q: What about the TGI [50] of the same molecule?
A: Its TGI is 2750 nM.

Q: What about the GI50 [51] of the same molecule?
A: The GI50 was 1870 nM.

Q: What about the TGI [51] of the same molecule?
A: Its TGI is 56100 nM.

Q: What about the GI50 [52] of the same molecule?
A: The GI50 was 2830 nM.

Q: And the TGI [52]?
A: Its TGI is 10800 nM.

Q: And the GI50 [53]?
A: The GI50 was 4450 nM.

Q: And the TGI [53]?
A: The TGI was 16800 nM.

Q: What about the GI50 [54] of the same molecule?
A: Its GI50 is 1540 nM.

Q: And the TGI [54]?
A: Its TGI is 3550 nM.

Q: And the GI50 [55]?
A: The GI50 was 503 nM.

Q: What about the TGI [55] of the same molecule?
A: The TGI was 2430 nM.

Q: And the GI50 [56]?
A: The GI50 was 2190 nM.

Q: What about the TGI [56] of the same molecule?
A: The TGI was > 100000 nM.

Q: And the GI50 [57]?
A: The GI50 was 2830 nM.

Q: What about the TGI [57] of the same molecule?
A: The TGI was 12600 nM.

Q: `CNCCN(C)c1ccc(Nc2cc(NC3CC3)n3ncc(C#N)c3n2)cc1NC(C)=O` was tested. Which GI50 [38] did it give?
A: Its GI50 is < 10.6 nM.

Q: And the TGI [38]?
A: Its TGI is 62.6 nM.

Q: How did the GI50 [38] turn out when `CC(=O)N1CCN(CCNC(=O)n2cc(-c3ccncc3)c(-c3cc(O)cc(Cl)c3)n2)CC1` was run?
A: The GI50 was 4590 nM.

Q: What about the TGI [38] of the same molecule?
A: The TGI was 20800 nM.

Q: `NS(=O)(=O)c1ccc(Nc2nc(N/N=C/c3ccc(C(F)(F)F)cc3)nc(Nc3ccccc3)n2)cc1` was tested. Which GI50 [38] did it give?
A: Its GI50 is 1730 nM.

Q: What about the TGI [38] of the same molecule?
A: The TGI was 3870 nM.

Q: With `C#C[C@@]1(O)[C@@H](CO)O[C@@H](n2cc(I)c3c(N)ncnc32)[C@@H]1O` as the molecule, how does the GI50 [38] read?
A: The GI50 was 153 nM.

Q: And the TGI [38]?
A: Its TGI is 561 nM.

Q: Which results are given for `CN=C1C=CC(=C(c2ccc(N(C)C)cc2)c2ccc(N(C)C)cc2)C=C1`?
A: GI50 [38]: 178 nM; TGI [38]: 539 nM
